Measurements: US20230082430A1 (C4 Therapeutics, Inc., priority 2019, published 2023)

Each compound was assayed on NCIH929.1 cells (assay: Cell viability assay for Table 2 (CellTiter-Glo 2.0, ATP quantification, 96 hr)). Conditions: 96 h, NCIH929.1 cell viability, 96 hr, top concentration 1 μM, 14 points half log titration; read-out: IC50.
Assay type: cell-based
Text: Cell Viability Assay for Table 2
CellTiter-Glo® 2.0 Assay was purchased from Promega (Madison, Wis., USA). NCIH929.1 cell line was purchased from ATCC (Manassas, Va., USA). Cell culture flasks and 384-well microplates were acquired from VWR (Radnor, Pa., USA).

| SMILES | IC50 |
| --- | --- |
| COC1(CN2CCC(n3cc(Cc4ccc5c6c(cccc46)C(=O)N5C4CCC(=O)NC4=O)cn3)CC2)CCC1 (centres unmarked) [Compound 56, 3-(6-((1-(1-((1-methoxycyclobutyl)methyl)piperidin-4-yl)-1H-pyrazol-4-yl)methyl)-2-oxobenzo[cd]indol-1(2H)-yl)piperidine-2,6-dione] | < 1 nM |
| O=C1CCC(N2C(=O)c3cccc4c(Cc5cnn(C6CCN(C(=O)C78COC(C7)C8)CC6)c5)ccc2c34)C(=O)N1 (centres unmarked) [Compound 37, 3-(6-((1-(1-(2-oxabicyclo[2.1.1]hexane-4-carbonyl)piperidin-4-yl)-1H-pyrazol-4-yl)methyl)-2-oxobenzo[cd]indol-1(2H)-yl)piperidine-2,6-dione] | < 1 nM |
| O=C1CCC(N2C(=O)c3cccc4c(Cc5ccc(CN6CCN(S(=O)(=O)CC(F)(F)F)CC6)cc5)ccc2c34)C(=O)N1 (single isomer, unassigned) [Compound 159, 3-(2-Oxo-6-{4-[4-(2,2,2-trifluoro-ethanesulfonyl)-piperazin-1-ylmethyl]-benzyl}-2H-benzo[cd]indol-1-yl)-piperidine-2,6-dione] | < 1 nM |
| O=C1CCC(N2C(=O)c3cccc4c(Cc5ccc(CN6CC(Oc7ccc(F)cc7)C6)cc5)ccc2c34)C(=O)N1 (centres unmarked) [Compound 120, 3-(6-(4-((3-(4-fluorophenoxy)azetidin-1-yl)methyl)benzyl)-2-oxobenzo[cd]indol-1(2H)-yl)piperidine-2,6-dione] | < 1 nM |
| N#CC1(C(=O)N2CCC(n3cc(Cc4ccc5c6c(cccc46)C(=O)N5C4CCC(=O)NC4=O)cn3)CC2)CC1 (centres unmarked) [Compound 38, 1-(4-(4-((1-(2,6-dioxopiperidin-3-yl)-2-oxo-l,2-dihydrobenzo[cd]indol-6-yl)methyl)-1H-pyrazol-1-yl)piperidine-1-carbonyl)cyclopropane-1-carbonitrile] | < 1 nM |
| CC1(C(=O)N2CCC(n3cc(Cc4ccc5c6c(cccc46)C(=O)N5C4CCC(=O)NC4=O)cn3)CC2)CCC1 (centres unmarked) [Compound 53, 3-(6-((1-(1-(1-methylcyclobutane-1-carbonyl)piperidin-4-yl)-1H-pyrazol-4-yl)methyl)-2-oxobenzo[cd]indol-1(2H)-yl)piperidine-2,6-dione] | < 1 nM |
| CC1(n2cc(Cc3ccc4c5c(cccc35)C(=O)N4C3CCC(=O)NC3=O)cn2)CCN(C(=O)C23C4C5C6C4C2C6C53)CC1 (stereo not drawn) [Compound 70, 3-(6-((1-(l-(cubane-1-carbonyl)-4-methylpiperidin-4-yl)-1H-pyrazol-4-yl)methyl)-2-oxobenzo[cd]indol-1(2H)-yl)piperidine-2,6-dione] | < 1 nM |
| O=C1CCC(N2C(=O)c3cccc4c(Cc5ccc(CN6CCN(C(=O)C7CC7)CC6)cc5)ccc2c34)C(=O)N1 (centres unmarked) [Compound 112, 3-(6-(4-((4-(cyclopropanecarbonyl)piperazin-1-yl)methyl)benzyl)-2-oxobenzo[cd]indol-1(2H)-yl)piperidine-2,6-dione] | < 1 nM |
| CC1(C(=O)N2CCC(n3cc(Sc4ccc5c6c(cccc46)C(=O)N5C4CCC(=O)NC4=O)cn3)CC2)CCC1 (centres unmarked) [Compound 174, 3-[6-[1-[1-(1-methylcyclobutanecarbonyl)-4-piperidyl]pyrazol-4-yl]sulfanyl-2-oxo-benzo[cd]indol-1-yl]piperidine-2,6-dione] | < 1 nM |
| N#Cc1ccc(N2CCN(Cc3ccc(Cc4ccc5c6c(cccc46)C(=O)N5C4CCC(=O)NC4=O)cn3)CC2)c(F)c1 (centres unmarked) [Compound 279, 4-[4-[[5-[[1-(2,6-dioxo-3-piperidyl)-2-oxo-benzo[cd]indol-6-yl]methyl]-2-pyridyl]methyl]piperazin-1-yl]-3-fluoro-benzonitrile] | < 1 nM |
| O=C1CCC(N2C(=O)c3cccc4c(Cc5ccc(CN6CCN(S(=O)(=O)CC(F)(F)F)CC6)cc5)ccc2c34)C(=O)N1 (centres unmarked) [Compound 109, 3-(2-oxo-6-(4-((4-((2,2,2-trifIuoroethyl)sulfonyl)piperazin-1-yl)methyl)benzyl)benzo[cd]indol-1(2H)-yl)piperidine-2,6-dione] | < 1 nM |
| O=C1CCC(N2C(=O)c3cccc4c(Cc5ccc(CN6CCC(c7ccccc7)CC6)cc5)ccc2c34)C(=O)N1 (centres unmarked) [Compound 227, 3-(2-oxo-6-(4-((4-phenylpiperidin-1-yl)methyl)benzyl)benzo[cd]indol-1(2H)-yl)piperidine-2,6-dione] | < 1 nM |
| CC(C)(C#N)CN1CCC(n2cc(Cc3ccc4c5c(cccc35)C(=O)N4C3CCC(=O)NC3=O)cn2)CC1 (centres unmarked) [Compound 61, 3-(4-(4-((1-(2,6-dioxopiperidin-3-yl)-2-oxo-1,2-dihydrobenzo[cd]indol-6-yl)methyl)-1H-pyrazol-1-yl)piperidin-1-yl)-2,2-dimethylpropanenitrile] | < 1 nM |
| O=C1CCC(N2C(=O)c3cccc4c(Cc5ccc(CN6CCn7c(nnc7C(F)(F)F)C6)cc5)ccc2c34)C(=O)N1 (centres unmarked) [Compound 121, 3-(2-oxo-6-(4-((3-(trifluoromethyl)-5,6-dihydro-[1,2,4]triazolo[4,3-a]pyrazin-7(8H)-yl)methyl)benzyl)benzo[cd]indol-1(2H)-yl)piperidine-2,6-dione] | < 1 nM |
| CC1(CN2CCC(n3cc(Cc4ccc5c6c(cccc46)C(=O)N5C4CCC(=O)NC4=O)cn3)C(F)(F)C2)CCC1 (single isomer, unassigned) [Compound 186, 3-[6-[[1-[3,3-difluoro-1-[(1-methylcyclobutyl)methyl]-4-piperidyl]pyrazol-4-yl]methyl]-2-oxo-benzo[cd]indol-1-yl]piperidine-2,6-dione] | < 1 nM |
| CC12CC(C(=O)N3CCC(n4cc(Cc5ccc6c7c(cccc57)C(=O)N6C5CCC(=O)NC5=O)cn4)CC3)(CCO1)C2 (centres unmarked) [Compound 49, 3-(6-((1-(1-(1-methyl-2-oxabicyclo[3.1.1]heptane-5-carbonyl)piperidin-4-yl)-1H-pyrazol-4-yl)methyl)-2-oxobenzo[cd]indol-1(2H)-yl)piperidine-2,6-dione] | < 1 nM |
| O=C1CCC(N2C(=O)c3cccc4c(Cc5cnn(C6CCN([C@@H]7CCC8(CCC8)C7)CC6)c5)ccc2c34)C(=O)N1 (some centres unmarked) [Compound 243] | < 1 nM |
| N#Cc1ccc(N2CCC(Nc3ccc(Cc4ccc5c6c(cccc46)C(=O)N5C4CCC(=O)NC4=O)cc3)CC2)c(F)c1 (centres unmarked) [Compound 166, 4-[4-[4-[[1-(2,6-dioxo-3-piperidyl)-2-oxo-benzo[cd]indol-6-yl]methyl]anilino]-1-piperidyl]-3-fluoro-benzonitrile] | < 1 nM |
| CC1(n2cc(Cc3ccc4c5c(cccc35)C(=O)N4C3CCC(=O)NC3=O)cn2)CCN(C(=O)C23CCN(CC2)C3)CC1 (centres unmarked) [Compound 74, 3-(6-((1-(1-(1-azabicydo[2.2.1]heptane-4-carbonyl)-4-methylpiperidin-4-yl)-1H-pyrazol-4-yl)methyl)-2-oxobenzo[cd]indol-1(2H)-yl)piperidine-2,6-dione] | < 100 nM |
| CC1(n2cc(Cc3ccc4c5c(cccc35)C(=O)N4C3CCC(=O)NC3=O)cn2)CCN(C(=O)C2(C#N)CC2)CC1 (centres unmarked) [Compound 79, 1-(4-(4-((1-(2,6-dioxopiperidin-3-yl)-2-oxo-1,2-dihydrobenzo[cd]indol-6-yl)methyl)-1H-pyrazol-1-yl)-4-methylpiperidine-1-carbonyl)cyclopropane-1-carbonitrile] | < 1 nM |
| C#CCNc1ccc2c3c(cccc13)C(=O)N2C1CCC(=O)NC1=O (centres unmarked) [Compound 136, 3-[2-oxo-6-(prop-2-ynylamino)benzo[cd]indol-1-yl]piperidine-2,6-dione] | > 999 nM |
| CN(c1ccc(Cc2ccc3c4c(cccc24)C(=O)N3C2CCC(=O)NC2=O)cc1)C1CCN(c2ccc(C#N)cc2F)CC1 (centres unmarked) [Compound 165, 4-[4-[4-[[1-(2,6-dioxo-3-piperidyl)-2-oxo-benzo[cd]indol-6-yl]methyl]-N-methyl-anilino]-1-piperidyl]-3-fluoro-benzonitrile] | < 1 nM |
| O=C1CCC(N2C(=O)c3cccc4c(Cc5ccc(CN6CCN(CC7CC7)CC6)cc5)ccc2c34)C(=O)N1 (centres unmarked) [Compound 113, 3-(6-(4-((4-(cyclopropylmethyl)piperazin-1-yl)methyl)benzyl)-2-oxobenzo[cd]indol-1(2H)-yl)piperidine-2,6-dione] | < 1 nM |
| CN(c1cnn(C2CCN(C(=O)OC(C)(C)C)CC2)c1)c1ccc2c3c(cccc13)C(=O)N2C1CCC(=O)NC1=O (centres unmarked) [Compound 252, tert-butyl 4-[4-[[1-(2,6-dioxo-3-piperidyl)-2-oxo-benzo[cd]indol-6-yl]-methyl-amino]pyrazol-1-yl]piperidine-1-carboxylate] | < 100 nM |
| O=C1CCC(N2C(=O)c3cccc4c(Cc5ccc(CN6CCN(c7ccccc7F)CC6)cc5)ccc2c34)C(=O)N1 (centres unmarked) [Compound 188, 3-[6-[[4-[[4-(2-fluorophenyl)piperazin-1-yl]methyl]phenyl]methyl]-2-oxo-benzo[cd]indol-1-yl]piperidine-2,6-dione] | < 1 nM |
| CC1(C(=O)N2CCC(C)(n3cc(Cc4ccc5c6c(cccc46)C(=O)N5C4CCC(=O)NC4=O)cn3)CC2)CCOCC1 (centres unmarked) [Compound 81, 3-(6-((1-(4-methyl-1-(4-methyltetrahydro-2H-pyran-4-carbonyl)piperidin-4-yl)-1H-pyrazol-4-yl)methyl)-2-oxobenzo[cd]indol-1(2H)-yl)piperidine-2,6-dione] | < 1 nM |
| CC(C)(C)C1CCN(Cc2ccc(Cc3ccc4c5c(cccc35)C(=O)N4C3CCC(=O)NC3=O)cc2)CC1 (centres unmarked) [Compound 158, 3-[6-[[4-[(4-tert-butyl-1-piperidyl)methyl]phenyl]methyl]-2-oxo-benzo[cd]indol-1-yl]piperidine-2,6-dione] | < 1 nM |
| CC1(C(=O)N2CCC(C)(n3cc(Cc4ccc5c6c(cccc46)C(=O)N5C4CCC(=O)NC4=O)c(Cl)n3)CC2)CCC1 (centres unmarked) [Compound 133] | < 1 nM |

Same assay, conditions: NCIH929.1 cell viability, 96 hr, top concentration 1 μM, 14 points half log titration; read-out: IC50

| SMILES | IC50 |
| --- | --- |
| O=C1CCC(N2C(=O)c3cccc4c(Cc5ccc(CN6CCN(c7ccccc7F)CC6)cc5)ccc2c34)C(=O)N1 (single isomer, unassigned) [Compound 189, 3-[6-[[4-[[4-(2-fluorophenyl)piperazin-1-yl]methyl]phenyl]methyl]-2-oxo-benzo[cd]indol-1-yl]piperidine-2,6-dione] | < 1 nM |
